Tested on: human embryonic stem cell line H1
Test: Real-time PCR gene expression, BMP inhibition and PKC activation at S3 (Example 2)
Assay type: cell-based
Details: 50 nM compared with 200 nM at S3
Description: Cells of the human embryonic stem cell line H1 were harvested at various passages (passage 40 to passage 52) and were seeded as single cells at a density of 100,000 cells/cm^2 on MATRIGEL™ (1:30 dilution) coated dishes in mTesr™1 media supplemented with 10 μM of Y27632. Forty eight hours post-seeding, cultures were differentiated into cells of the pancreatic endocrine lineage as follows: • a. Stage 1 (Definitive Endoderm (DE)—3 days): Prior to start of DE, the cultures were washed and incubated with incomplete PBS (no Mg or Ca) for 30 seconds followed by addition of the stage 1 media. Human embryonic stem cells cultured as single cells on MATRIGEL™-coated dishes were treated with MCDB-131 medium supplemented with 0.1% fatty acid-free BSA, 0.0012 g/ml sodium bicarbonate, 1× GLUTAMAX™, and 2.5 mM D-Glucose, 100 ng/ml GDF8, and […] MCX compound (GSK3B inhibitor) for one day. Cells were then treated with MCDB-131 medium supplemented with 0.1% fatty acid-free BSA, 0.0012 g/ml sodium bicarbonate, 1× GLUTAMAX™, 2.5 mM glucose, and 100 ng/ml GDF8 for days 2-3. • b. […]
mRNA was collected at S2-S4 for all the conditions listed above and analyzed using real-time PCR. […]

c1ccc2c(-c3cnn4cc(-c5ccc(N6CCNCC6)cc5)cnc34)ccnc2c1 [LDN-193189]
induction of endocrine markers (chromogranin and NGN3): as effective as 200 nM LDN-193189

— patent US12215354B2, “Differentiation of human embryonic stem cells into single hormonal insulin positive cells” (Janssen Biotech, Inc., priority 2011, dated 2025)
